The record followed here is patent publication US20250352555A1, “METHOD OF INCREASING IMMUNE CELL ACTIVATION AND/OR TREATING CANCER USING DIBENZOXAZEPINONES” (VASCULAR THERAPEUTICS PTY LTD, priority 2022, published 2025).

Molecules are shown by their SMILES. Values joined by “and” are separate entries in the source; they are usually repeats but may differ in a detail not shown here. Identical values can stand only once.

One series concerns A375 cells. Briefly: Migration assay (scratch), A375. It counts as cell-based, human. The note with it: 1 μM, 24 h, with greater potency than SCH772984. As for the experimental part:
Migration assays. Cells were grown in medium containing 10% FBS in 6-well plates. The following day the cells were scratched with a sterile toothpick, washed with PBS, and incubated in medium containing 10% FBS and vehicle, BT2 or SCH772984 at 1 μM. At 0, 24 h and 48 h the cells were photographed under a 4× objective using an Olympus CKX41 microscope. To assess the effect of BT2 on melanoma cell migration, A375 and MeWo cells were incubated with 1 μM of BT2 or SCH772984, and A375 and MeWo migration into the denuded zone was quantified after 24 or 48 h, respectively.

The test system of the next series is CD68. Briefly: Immunohistochemistry of B16F10 tumors (Day 17), CD68. It counts as in vivo, mouse. The settings on record: B16F10 tumors Day 17, 200 mg/kg i.p. The text has this:
Immunohistochemical staining and analyses. Rabbit monoclonal anti-CD3 (cat. no. ab16669; mouse, rat and human reactive), rabbit monoclonal anti-PD-1 (cat. no. ab214421), rabbit monoclonal anti-CD68 (cat. no. ab125212) antibodies were obtained from Abcam, rabbit monoclonal anti-phospho-ERK (Thr^202/Tyr^204) (cat. no. CST4370), rabbit monoclonal total ERK (cat. no. CST4695), antibodies were obtained from Cell Signaling Technology. Rabbit polyclonal anti-PD-L1 (cat. no. PA5-20343) antibody was obtained from ThermoFisher.
Formalin fixed, paraffin embedded sections were prepared from tumors. Heat-induced epitope retrieval was applied to all deparaffinized sections (4 μm sections on Superfrost slides) with citrate buffer, pH 6.0 for 5 min at 110° C. Sections were blocked with Dual Endogenous Enzyme Block (DAKO, S2003) for 10 min and then with 2% skim milk for 20 min. […] Integrated optical density (IOD) or area of positive staining (red chromagen) was assessed using Image-Pro Plus software (Cybernetics, Bethesda, MD, USA). Positive staining was the average of quantitation in 4-8 fields of view under 20× or 40× objectives.
Immunohistochemical analysis was performed on B16F10 tumors (Day 17) from BT2- or vehicle-treated mice with antibodies to CD68. IOD and tissue area were assessed using Image-Pro Plus and the IOD/μm^2 was determined.

A short description of series [1]: Serum BT2 concentration by LC-MS in B16F10 tumor-bearing mice. The format is in vivo. The note with it: mouse, intraperitoneal, Day 17, 200 mg/kg i.p., C57BL/6J mice. The method, then: Mass spectrometry. Proteins in serum (50 μl) were precipitated by diluting with acetone (150 μl). The mixture was left for 14 h at 4° C. and protein was pelleted by centrifugation (10 min at 14,000 g) and supernatant removed. The solution (10 μl) was diluted into 40 μl Buffer A (H2O (0.1% formic acid)) for MS analysis. BT2 standard was prepared by diluting stock suspension of BT2 ([…], 30 mg/ml) in Buffer A (990 μl) then diluting 10 μl of this in 990 μl followed by another 1 in 100 dilution. […] LC-MS was performed using a Thermo QExactive HF, Gold C18 column (50×2.1 mm) with Solvent A (H2O (0.1% formic acid) and Solvent B (H2O:CH3CN 20:80 (0.1% formic acid) with gradient T=0, 1% B, T=26 min, 100% B, T=27 min, 100%, T=27.1, 1% B, T=30 min, 1% B; column temperature 45° C. MS1 scan, m/z 140-800, 3×10^6 ions, max IT 25 msec, resolution 120,000 and Top 5 MS2 (2×10^5 ions, max IT 50 msec, resolution 30,000 and HCD 20, 30 50V). Extracted ion chromatograms (m/z 327.134±5 ppm) were obtained for blanks, standards and samples and integrated peak areas calculated and compared).
To assess the effect of BT2 in the same model, C57BL/6J mice bearing s.c. B16F10 tumors were administered with BT2 or vehicle (200 mg/kg or 20 ml/kg, respectively, i.p.) once a day on a 5 days-on/2 days-off schedule. Treatment commenced on Day 5 (FIG. 9A). […]

For `CCOC(=O)Nc1ccc2c(c1)C(=O)N(CC)c1ccccc1O2` [BT2, (10-ethyl-11-oxo-10,11-dihydro-dibenzo[b,f][1,4]oxazepin-2-yl)-carbamic acid ethyl ester], in the series on A375 cells, the “migration into the denuded zone” value was “suppressed melanoma migration”. The “CD68 levels in the tumors (IHC)” value with CD68 is “reduced levels of CD68”. For the same molecule, the concentration at 17 day in series [1] was 4000 ng/mL and 12.3 µM.
